One experiment has as its system cps operon. As to the kind of experiment: Disk diffusion assay for cps induction, SG20781 cpsB::lacZ reporter. It is filed as cell-based, E. coli. The conditions noted are these: SG20781, filter paper disks 10 or 100 μg, 24 hours at 37° C. Here is the method: For antibiotic screening targeting cps expression, the SG20781 strain (MC4100 lon+cpsB10::lacZ Mu-immλ) was used. The bacteria were cultured overnight at 37° C. in Luria-Broth (LB) medium and evenly plated on X-gal (40 μg/mL) supplemented LB agar plates, and incubated overnight.
E. coli strain SG20781 was used to assess antibiotic cps induction via disk diffusion as previously described [PMID: 14553918]. In brief, an overnight bacteria culture was spread onto LB agar containing 0.1 mg ml-1 5-bromo-4-chloro-3-indolyl-β-D-galactoside (X-gal). […] The soaked filter papers were placed onto the bacteria-seeding plates and incubated for 24 hours at 37° C.
Certain β-lactam antibiotics trigger the overexpression of the cps operon in E. coli [PMID: 14553918]. To validate this finding, a disk diffusion assay was performed using SG20781, an E. coli strain that harbors a LacZ reporter for the cps operon transcriptional regulation. Using a colorimetric assay, an increased level of […] reacts with X-gal, resulting in an intensified blue coloration as a result of the transcriptional up-regulation of the cps operon.

For another experiment, the target named is PBP4 (Escherichia coli, UniProt P24228). The conditions noted are these: literature, PMID 25733506; cited from earlier work.
The next experiment relates to wildtype E. coli. As to the kind of experiment: Colanic acid measurement (fucose quantification) in wildtype E. coli culture medium. Format: cell-based. Here is the method:
For colanic acid quantification, E. coli Keio mutants and the parental strain BW25113 were cultured overnight at 37° C. in M9 minimum medium [PMID: 28436966]. Bacteria were then removed by centrifugation and filtered for colanic acid measurement.
The desired bacterial strain was first inoculated and cultured in M9 minimum medium overnight at 37° C. to obtain the seeding culture. The OD 600 was measured, and the seeding bacteria were diluted to OD600=0.02 in M9 minimum medium for another 16 hours. After the incubation, bacterial cultures were collected in 50 mL tubes, spun down at 4,000 g at 4° C. for 30 min, filtered, and 25 mL of supernatant was collected per 50 ml conical tube. Ice-cold 100% ethanol (EtOH) was added to make a final 50% EtOH solution for precipitation, and the mixture was kept at 4° C. overnight. Once precipitation occurred, the liquid was carefully removed after centrifugation at 4,000 g at 4° C. for 50 min. The pellet was washed once with cold 80% EtOH and then air-dried in a hood. The pellet from every 50 mL culture was resuspended in 500 μL distilled H2O. The solution was sonicated for 60 minutes at 37° C., followed by centrifugation at 4000 g at 4° C. for 10 minutes. A 200 μL sample was mixed with 30 μL hydrochloric acid (320331-500 mL, Sigma-Aldrich) and boiled for 2 hours. Subsequently, 60 μL 5M NaOH and 150 μL NaHCO3/NaOH buffer were added to reach a pH of 6-8, calibrated by 1M HCl or NaOH solutions. The fucose quantification assay was then carried out using a K-FUCOSE kit (Megazyme) according to the manufacturer's protocol.
Next, colanic acid in the bacteria culture medium was quantified via monosaccharide-fucose-from acid-hydrolyzed polysaccharide precipitates. […] Calculations were performed to determine the equivalent dosage by weight in a mammalian subject. Briefly, a typical mouse consumes 5-10 ml of water per day and weighs between 30-40 g. Using the 1.8 μg/mL concentration, a lower bound of 0.225 mg/kg (0.0018 mg/mL×5 ml[…]0.04 kg) and a higher bound of 0.6 mg/kg (0.0018 mg/mL×10 ml÷0.03 kg) were identified. […] In wild-type bacteria treated with cephaloridine and Alon E. coli mutants colanic acid production increased during the exponential growth phase and remained elevated in the stationary phase (FIG. 1D).

On to `CC1(C)S[C@@H]2[C@H](NC(=O)[C@H](N)c3ccccc3)C(=O)N2[C@H]1C(=O)O` [ampicillin], for which the “cps induction (blue coloration)” value in the experiment with cps operon was “promote various shades of blue coloration”. Further, the “affinity for PBP4” value at PBP4 is listed as “higher affinity for PBP4”.
With `CC1(C)S[C@@H]2[C@H](NC(=O)C(C(=O)O)c3ccccc3)C(=O)N2[C@H]1C(=O)O` (stereo partly shown) [carbenicillin], in the experiment with cps operon, the “cps induction (blue coloration)” value is “promote various shades of blue coloration”.
Still for that read-out and setting: next, `Cc1nnc(SCC2=C(C(=O)O)N3C(=O)[C@@H](NC(=O)Cn4cnnn4)[C@H]3SC2)s1` [cefazolin]: “promote various shades of blue coloration”.
On the same count and under the same terms, next, `CO/N=C(\C(=O)N[C@@H]1C(=O)N2C(C(=O)O)=C(COC(N)=O)CS[C@H]12)c1ccco1` [cefuroxime]: “promote various shades of blue coloration”.
Regarding `CC(=O)OCC1=C(C(=O)O)N2C(=O)[C@@H](NC(=O)Cc3cccs3)[C@H]2SC1` [cephalothin], the “cps induction (blue coloration)” value in the experiment with cps operon was “promote various shades of blue coloration”. Besides, the “colanic acid production vs untreated wildtype control” value in the experiment with wildtype E. coli (cephalothin 0.625 μg/mL) is given as 3.5 fold.
For the molecule `CC1(C)S[C@@H]2[C@H](NC(=O)Cc3ccccc3)C(=O)N2[C@H]1C(=O)O` [penicillin G], the “cps induction (blue coloration)” value in the experiment on cps operon is “promote various shades of blue coloration”. Besides, the “colanic acid production vs untreated wildtype control” value in the experiment with wildtype E. coli (penicillin G 5 μg/mL) is given as 3.25 fold. For the same molecule, the “affinity for PBP4” value on PBP4 is on record as “higher affinity for PBP4”.

(Values after patent publication US20250295668A1, “METHODS FOR INDUCING COLANIC ACID BIOSYNTHESIS” (priority 2024, published 2025).)
